Key:
[1] = tested on: galium; assay: Test C postemergence; type: in vivo, Galium aparine
How it was run: (§1)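 Rated visually on 0–100 (100 = complete control) after 13–15 days under glass. Treatments went onto freshly seeded loam/sand soil or onto emerged plants at the 1- to 4-leaf stage, using a surfactant-containing solvent formulation.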

[2] = tested on: johnsongrass; assay: Test C postemergence; type: in vivo, Sorghum halepense
How it was run: as §1

[3] = tested on: corn; assay: Test A postemergence; type: in vivo, Zea mays; details: 0 to 100 scale where 0 is no effect and 100 is complete control
How it was run: (§2)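 Greenhouse pot test, loam/sand soil. Formulation: non-phytotoxic solvent mix plus surfactant. Pre: directed spray onto soil after sowing. Post: plants at 1–2 leaf, 2–10 cm. Rated visually vs untreated controls at ~10 d, 0 (no effect) to 100 (complete control).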

[4] = tested on: wheat, winter; assay: Test C postemergence; type: in vivo, Triticum aestivum
How it was run: as §1

[5] = tested on: oilseed rape; assay: Test C postemergence; type: in vivo, Brassica napus
How it was run: as §1

[6] = tested on: giant foxtail; assay: Test A preemergence; type: in vivo, Setaria faberii; details: 0 to 100 scale where 0 is no effect and 100 is complete control
How it was run: as §2

[7] = tested on: velvetleaf; assay: Test C postemergence; type: in vivo, Abutilon theophrasti; details: scale 0 to 100 (0 no effect, 100 complete control)
How it was run: as §1

[8] = tested on: morningglory; assay: Test A preemergence; type: in vivo, Ipomoea spp.
How it was run: as §2

[9] = tested on: pigweed; assay: Test C postemergence; type: in vivo, Amaranthus retroflexus
How it was run: as §1

[10] = tested on: ragweed; assay: Test C postemergence; type: in vivo, Ambrosia elatior
How it was run: as §1

[11] = tested on: blackgrass; assay: Test C postemergence; type: in vivo, Alopecurus myosuroides
How it was run: as §1

[12] = tested on: velvetleaf; assay: Test A postemergence; type: in vivo, Abutilon theophrasti; details: 0 to 100 scale where 0 is no effect and 100 is complete control
How it was run: as §2

[13] = tested on: soybean; assay: Test C postemergence; type: in vivo, Glycine max
How it was run: as §1

[14] = tested on: kochia; assay: Test C postemergence; type: in vivo, Kochia scoparia
How it was run: as §1

[15] = tested on: wheat; assay: Test A preemergence; type: in vivo, Triticum aestivum
How it was run: as §2

[16] = tested on: velvetleaf; assay: Test A preemergence; type: in vivo, Abutilon theophrasti
How it was run: as §2

[17] = tested on: morningglory; assay: Test A postemergence; type: in vivo, Ipomoea spp.; details: 0 to 100 scale where 0 is no effect and 100 is complete control
How it was run: as §2

[18] = tested on: waterhemp; assay: Test C postemergence; type: in vivo, Amaranthus rudis
How it was run: as §1

[19] = 16 g ai/ha, postemergence, 0 is no effect, 100 is complete control
[20] = 31 g ai/ha, postemergence, visual rating, scale 0 to 100 (0 no effect, 100 complete control), 13 to 15 days
[21] = 125 g ai/ha, postemergence, visual rating, scale 0 to 100 (0 no effect, 100 complete control)
[22] = Postemergence, 62 g ai/ha, scale 0 to 100 (0 no effect, 100 complete control)
[23] = 500 g ai/ha, 0 to 100 scale where 0 is no effect and 100 is complete control

Compound: Fc1cnc(Oc2cccc(C(F)F)c2-n2cc(C(F)(F)F)cn2)nc1 [Compound 164]
- Plant response rating (0 to 100), Galium [1, 19]: 50
- Galium plant response rating [1, 20]: 55
- Plant response rating, Galium [1, 21]: 65
- Plant response rating, Galium [1, 22]: 80
- Plant response rating (0 to 100), Johnsongrass [2, 19]: 0
- Johnsongrass plant response rating [2, 20]: 0
- Plant response rating, Johnsongrass [2, 21]: 10
- Plant response rating, Johnsongrass [2, 22]: 5
- Corn plant response rating ([3]; 125 g ai/ha): 40
- Plant response rating, Corn ([3]; 500 g ai/ha): 90
- Plant response rating (0 to 100), Wheat [4, 19]: 0
- Wheat plant response rating [4, 20]: 0
- Plant response rating, Wheat [4, 21]: 0
- Plant response rating, Wheat [4, 22]: 0
- Plant response rating (0 to 100), Oilseed Rape [5, 19]: 10
- Oilseed Rape plant response rating [5, 20]: 10
- Plant response rating, Oilseed Rape [5, 21]: 60
- Plant response rating, Oilseed Rape [5, 22]: 55
- Plant response rating, Foxtail, Giant ([6]; 125 g ai/ha): 90
- Foxtail, Giant plant response rating ([6]; 500 g ai/ha): 100
- Velvetleaf plant response rating ([7]; 31 g ai/ha, postemergence, visual rating, 13 to 15 days): 15
- Plant response rating, Velvetleaf ([7]; 125 g ai/ha, postemergence, visual rating): 65
- Plant response rating, Velvetleaf ([7]; Postemergence, 62 g ai/ha): 40
- Morningglory plant response rating (0 to 100 scale) ([8]; 125 g ai/ha): 80
- Morningglory plant response rating [8, 23]: 100
- Plant response rating (0 to 100), Pigweed [9, 19]: 50
- Pigweed plant response rating [9, 20]: 75
- Plant response rating, Pigweed [9, 21]: 80
- Plant response rating, Pigweed [9, 22]: 75
- Plant response rating (0 to 100), Ragweed [10, 19]: 20
- Ragweed plant response rating [10, 20]: 15
- Plant response rating, Ragweed [10, 21]: 55
- Plant response rating, Ragweed [10, 22]: 60
- Plant response rating (0 to 100), Blackgrass [11, 19]: 0
- Blackgrass plant response rating [11, 20]: 0
- Plant response rating, Blackgrass [11, 21]: 15
- Plant response rating, Blackgrass [11, 22]: 5
- Velvetleaf plant response rating ([12]; 125 g ai/ha): 100
- Plant response rating, Velvetleaf ([12]; 500 g ai/ha): 100
- Plant response rating (0 to 100), Soybean [13, 19]: 40
- Soybean plant response rating [13, 20]: 35
- Plant response rating, Soybean [13, 21]: 65
- Plant response rating, Soybean [13, 22]: 75
- Plant response rating (0 to 100), Kochia [14, 19]: 80
- Kochia plant response rating [14, 20]: 90
- Plant response rating, Kochia [14, 21]: 95
- Plant response rating, Kochia [14, 22]: 90
- Wheat plant response rating (0 to 100 scale) ([15]; 125 g ai/ha): 20
- Wheat plant response rating [15, 23]: 90
- Velvetleaf plant response rating (0 to 100 scale) ([16]; 125 g ai/ha): 100
- Velvetleaf plant response rating [16, 23]: 100
- Morningglory plant response rating ([17]; 125 g ai/ha): 80
- Plant response rating, Morningglory ([17]; 500 g ai/ha): 100
- Plant response rating (0 to 100), Waterhemp [18, 19]: 50
- Waterhemp plant response rating [18, 20]: 45
- Plant response rating, Waterhemp [18, 21]: 75
- Plant response rating, Waterhemp [18, 22]: 65
